Measurements taken from the supplement of paper PMC10307832.

How the values were obtained:
Assay in all cases: relative viability (nuclei count vs DMSO), 5 days (fraction); higher = more cells survive
[1] = compound: Cn1cc(-c2cnn3c(N)c(Br)c([C@@H]4CCCNC4)nc23)cn1 + Cc1cc(Nc2cc(N3CCN(C)CC3)nc(Sc3ccc(NC(=O)C4CC4)cc3)n2)n[nH]1 [Tozasertib] (partner 0.1 µM)
Method in brief: (§1)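 Relative viability equals treated-well nuclei counts divided by vehicle-well nuclei counts. Counts came from 4× images of lung cancer cell lines grown in 1536-well plates for 5 days after pin-tool dosing on the day after seeding. Dosing used one drug alone or a fixed anchor-drug dose plus five library-drug doses (not always all listed) in √10 steps, and values are medians of duplicate plates.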

[2] = compound: Cn1cc(-c2cnn3c(N)c(Br)c([C@@H]4CCCNC4)nc23)cn1 + COc1cc2c(Oc3ccc(NC(=O)C4(C(=O)Nc5ccc(F)cc5)CC4)cc3F)ccnc2cc1OCCCN1CCOCC1 [Foretinib] (partner 0.25 µM)
Method in brief: as §1

[3] = compound: Cn1cc(-c2cnn3c(N)c(Br)c([C@@H]4CCCNC4)nc23)cn1 + CCNC(=O)c1noc(-c2cc(C(C)C)c(O)cc2O)c1-c1ccc(CN2CCOCC2)cc1 [Luminespib] (partner 0.01 µM)
Method in brief: as §1

[4] = compound: Cn1cc(-c2cnn3c(N)c(Br)c([C@@H]4CCCNC4)nc23)cn1 + NC(=O)Nc1cc(-c2cccc(F)c2)sc1C(=O)N[C@H]1CCCNC1 [AZD7762] (partner 0.2 µM)
Method in brief: as §1

| Cell Line | relative viability ([1]; first compound 0.05 µM) | relative viability ([1]; first compound 0.1581 µM) | relative viability ([1]; first compound 0.5 µM) | relative viability ([1]; first compound 1.581 µM) | relative viability ([1]; first compound 5 µM) | relative viability ([2]; first compound 0.05 µM) | relative viability ([2]; first compound 0.1581 µM) | relative viability ([2]; first compound 0.5 µM) | relative viability ([2]; first compound 1.581 µM) | relative viability ([2]; first compound 5 µM) | relative viability ([3]; first compound 0.05 µM) | relative viability ([3]; first compound 0.1581 µM) | relative viability ([3]; first compound 0.5 µM) | relative viability ([3]; first compound 1.581 µM) | relative viability ([3]; first compound 5 µM) | relative viability ([4]; first compound 0.05 µM) | relative viability ([4]; first compound 0.1581 µM) | relative viability ([4]; first compound 0.5 µM) | relative viability ([4]; first compound 1.581 µM) | relative viability ([4]; first compound 5 µM) |
| --- | --- | --- | --- | --- | --- | --- | --- | --- | --- | --- | --- | --- | --- | --- | --- | --- | --- | --- | --- | --- |
| NCI-H2085 | 0.807 | 0.928 | 0.866 | 0.811 | 0.736 | 0.917 | 0.944 | 0.986 | 0.894 | 0.625 | 0.4 | 0.477 | 0.461 | 0.417 | 0.339 | 0.964 | 1.12 | 1.01 | 0.765 | 0.719 |
| NCI-H2087 | 0.222 | 0.253 | 0.241 | 0.263 | 0.174 | 1.18 | 1.22 | 0.989 | 1.32 | 1 | 0.143 | 0.168 | 0.192 | 0.151 | 0.175 | 1.32 | 1.38 | 1.41 | 1.22 | 1.42 |
| NCI-H2126 | 0.809 | 0.819 | 0.774 | 0.611 | 0.644 | 1.2 | 1.3 | 1.11 | 1.02 | 1.53 | 0.755 | 0.964 | 0.983 | 0.608 | 0.595 | 1.05 | 1.03 | 0.997 | 0.993 | 0.986 |
| NCI-H2170 | 0.78 | 0.789 | 0.644 | 0.894 | 0.855 | 1.02 | 0.934 | 0.963 | 1.02 | 1.1 | 0.837 | 0.561 | 0.799 | 0.931 | 0.422 | 0.923 | 0.919 | 0.753 | 0.822 | 0.973 |
| NCI-H2342 | 0.547 | 0.522 | 0.531 | 0.52 | 0.408 | 1.13 | 1.19 | 1.09 | 0.92 | 1.07 | 0.764 | 0.88 | 0.773 | 0.708 | 0.615 | 0.493 | 0.491 | 0.542 | 0.487 | 0.29 |
| NCI-H2347 | 0.539 | 0.563 | 0.518 | 0.49 | 0.44 | 0.789 | 0.877 | 0.815 | 0.593 | 0.724 | 0.506 | 0.677 | 0.473 | 0.409 | 0.297 | 0.77 | 0.635 | 0.76 | 0.65 | 0.532 |
| NCI-H2405 | 0.733 | 0.784 | 0.723 | 0.743 | 0.498 | 0.978 | 0.952 | 1.05 | 0.989 | 0.919 | 0.717 | 0.858 | 0.705 | 0.73 | 0.439 | 0.682 | 0.75 | 0.659 | 0.476 | 0.501 |
| NCI-H3122 | 0.508 | 0.403 | 0.401 | 0.283 | 0.329 | 0.977 | 1.02 | 0.92 | 0.992 | 0.977 | 0.0947 | 0.0737 | 0.0857 | 0.0666 | 0.12 | 0.981 | 1.07 | 1 | 0.883 | 1.16 |
| PC-3 [JPC-3] | 0.812 | 0.986 | 0.94 | 0.75 | 0.91 | 1.02 | 1.2 | 0.997 | 1.03 | 1.06 | 0.702 | 0.642 | 0.619 | 0.564 | 0.748 | 0.774 | 0.766 | – | 0.616 | 0.637 |
| PC-14 | 0.634 | 0.458 | 0.594 | 0.438 | 0.274 | 0.974 | 1.04 | 0.933 | 0.903 | 0.53 | 0.179 | – | 0.179 | 0.159 | 0.165 | 0.348 | 0.273 | 0.332 | 0.277 | 0.182 |
| RERF-LC-KJ | 0.52 | 0.502 | 0.501 | 0.346 | 0.384 | 0.98 | 0.881 | 0.865 | 0.727 | 0.86 | 1.34 | 1.28 | 0.693 | 0.863 | 0.873 | 1.1 | 0.864 | 1.1 | 0.872 | 0.749 |
| SW 900 | 0.59 | 0.66 | 0.421 | 0.458 | 0.351 | 0.828 | 0.817 | 0.78 | 0.768 | 0.39 | 0.184 | 0.176 | 0.188 | 0.189 | 0.165 | 0.607 | 0.618 | 0.572 | 0.547 | 0.465 |
